# Paper PMC11695783 (Frontiers in Pharmacology, 2024)
# Values joined by “and” are separate entries in the source; they are usually repeats but may differ in a detail not shown here. Equal entries are not always repeated.
# Assay: Pharmacokinetic studies in mice (intravenous and intramuscular, plasma, HPLC-MS/MS)
# Format: in vivo, BALB/c mice
# Parameters: AUClast / AUCall / AUCINF_obs / AUCINF_pred / AUCINFobs: concentration or dose not given beside the values; Tlast / Clast / AUMClast / AUMCINF_obs / AUMCINF_pred / Lambda_z / HL_Lambda_z / Cl_obs / Cl_pred / Cl_F_obs / Tlag / Cl_F_pred: unit not given here
# Conditions: for plasma concentration, AV: average of mice; for plasma concentration: individual mice 1-8
# Description: Pharmacokinetic experimental procedures of compound 16C were measured according to previous reports with some modifications ([Wang et al., 2022]). In brief, BALB/c mice were divided into two groups of eight mice each; one group was injected intravenously and the other was injected intramuscularly with compound 16C at a dose of 10 mg/kg. The dose was based on previous studies of novel pleuromutilin derivatives ([Jin et al., 2019]; [Wang et al., 2022]). Meanwhile, the dose of tiamulin approved by the European Union for intramuscular administration is 10–20 mg/kg ([EMA, 1999]). The volume of the injection was 0.1 mL/10 g. The compound 16C formulation was a filtered solution in 5% DMSO, 5% Tween-80, and 90% normal saline. Blood was obtained from eight mice via the ocular venous plexus at 0.083, 0.167, 0.25, 0.334, 0.5, 0.75, 1, 1.5, 2, 3, 4, 6, 8, and 12 h following tail intravenous or thigh Intramuscular injection. A glass capillary with a diameter of 0.3 mm was inserted into the outer canthus of the mouse, and 200 μL blood was collected using a 1.5 mL anticoagulant centrifuge tube. The blood was centrifuged at 3,000 rpm for 10 min to obtain plasma. 100 μL of plasma was aspirated for drug concentration detection, and eight parallel samples from different mice were obtained at each time point.
# All pharmacokinetic experimental samples and method validation samples were added with 4 times the volume of acetonitrile and shaken for 1 min, centrifuged at high speed at 13,000× g for 10 min, and the supernatants were taken and filtered to detect the drug concentration. Some samples with high concentrations were diluted to the linear range prior to analysis.
# The extracted samples were analyzed using a high-performance liquid chromatography-tandem mass spectrometry (HPLC-MS/MS) system (Agilent, Santa Clara, CA, United States) 1200 HPLC and Applied Biosystems (Waltham, MA, United States) API 4000 mass spectrometer). HPLC-MS/MS analysis using a Zorbax Eclipse XDB-C18 (4.6 × 50 mm, 3.5 μm) column (Agilent). The mobile phase A (acetonitrile) and B (water) were applied as a gradient as follows: 0–3 min: 15%–95% A and maintain from 3 min to 5 min at 95% A. 5–5.1 min: 95%–15% A and maintain from 5.1 to 10 min at 15% A. Flow rate: 500 μL/min; column temperature: 30°C and injection volume: 4 μL. The electrospray ionization (ESI) source of the mass spectrometer was operated in […], with the following ion source parameters: ion spray voltage 4,500 V, collision gas 7 psi, ion source gas 1 55 psi, ion source gas 2 40 psi, curtain gas 20 psi, source temperature 600°C. The precursor ion m/z of Compound 16C was 633.3, and the product ions m/z were 272.0 (quantifier) 286.9 and 313.0. Declustering potentials (DP) were 140, 140, and 144 V, respectively; entrance potential (EP) was 10 V; collision energy (CE) was 55, 46, and 15 V, respectively; and collision cell exit potential (CXP) was 14 V.
# […] Pharmacokinetic parameters include time to maximum concentration (Tmax), maximum concentration (Cmax), the area under the plasma concentration–time curve (AUC0-∞), clearance rate (CL), the apparent volume of distribution (Vd), bioavailability (F), elimination half-life (T1/2kel) and absorption half-life (T1/2ka).
structure (smiles),measurement,setting,value
C=C[C@]1(C)C[C@@H](OC(=O)CSc2ccc(NC(=O)Cc3ccc([N+](=O)[O-])cc3)cc2)[C@]2(C)[C@H](C)CC[C@]3(CCC(=O)[C@H]32)[C@@H](C)[C@@H]1O,"plasma concentration, AV","IM, 0.083h",409.1 ng/mL
same,"plasma concentration, AV","IM, 0.17h",470.8 ng/mL
same,"plasma concentration, AV","IM, 0.25h",496 ng/mL
same,"plasma concentration, AV","IM, 0.33h",490 ng/mL
same,"plasma concentration, AV","IM, 0.5h",449.1 ng/mL
same,"plasma concentration, AV","IM, 0.75h",404.2 ng/mL
same,"plasma concentration, AV","IM, 1h",281.2 ng/mL
same,"plasma concentration, AV","IM, 1.5h",246.4 ng/mL
same,plasma concentration,"IM, 1.5h",189 ng/mL and 266 ng/mL and 253 ng/mL and 291 ng/mL and 290 ng/mL and 328 ng/mL and 158 ng/mL and 196 ng/mL
same,"plasma concentration, AV","IM, 2h",158.4 ng/mL
same,plasma concentration,"IM, 2h",100 ng/mL and 171 ng/mL and 124 ng/mL and 153 ng/mL and 195 ng/mL and 254 ng/mL and 139 ng/mL and 131 ng/mL
same,"plasma concentration, AV","IM, 3h",123.2 ng/mL
same,plasma concentration,"IM, 3h",92.5 ng/mL and 183 ng/mL and 129 ng/mL and 115 ng/mL and 122 ng/mL and 146 ng/mL and 111 ng/mL and 87 ng/mL
same,"plasma concentration, AV","IM, 4h",84.54 ng/mL
same,plasma concentration,"IM, 4h",67.6 ng/mL and 99.6 ng/mL and 79.9 ng/mL and 104 ng/mL and 84.5 ng/mL and 117 ng/mL and 51.6 ng/mL and 72.1 ng/mL
same,"plasma concentration, AV","IM, 6h",37.03 ng/mL
same,plasma concentration,"IM, 6h",27 ng/mL and 51.8 ng/mL and 31.4 ng/mL and 43.1 ng/mL and 35.8 ng/mL and 43.3 ng/mL and 20 ng/mL and 43.8 ng/mL
same,"plasma concentration, AV","IM, 8h",18.45 ng/mL
same,plasma concentration,"IM, 8h",13.1 ng/mL and 25.3 ng/mL and 16.7 ng/mL and 19.2 ng/mL and 15 ng/mL and 22.7 ng/mL and 13 ng/mL and 22.6 ng/mL
same,"plasma concentration, AV","IM, 12h",6.302 ng/mL
same,plasma concentration,"IM, 12h",1.85 ng/mL and 6.51 ng/mL and 5.87 ng/mL and 6.37 ng/mL and 4.83 ng/mL and 6.04 ng/mL and 9.7 ng/mL and 9.25 ng/mL
same,AUCINF_obs,"IM, individual mice",1087.9 and 805.258 and 1373.07 and 1092.7 and 1076.67 and 1204.87 and 1450.76 and 1023.1
same,AUCINF_pred,"IM, individual mice",1087.68 and 805.26 and 1373.07 and 1092.68 and 1076.58 and 1204.84 and 1450.76 and 1021.5
same,AUC_%Extrap_obs,"IM, individual mice",3.4748% and 0.4887% and 1.3883% and 1.9994% and 1.9823% and 1.3449% and 1.2619% and 9.501%
same,AUC_%Extrap_pred,"IM, individual mice",3.4549% and 0.489% and 1.388% and 1.9971% and 1.9741% and 1.3423% and 1.262% and 9.3589%
same,AUCall,"IM, individual mice",1050.1 and 801.322 and 1354.01 and 1070.85 and 1055.33 and 1188.66 and 1432.45 and 925.896
same,AUClast,"IM, individual mice",1050.1 and 801.322 and 1354.01 and 1070.85 and 1055.33 and 1188.66 and 1432.45 and 925.896
same,AUMCINF_obs,"IM, individual mice",3193.81 and 1900.71 and 3591.01 and 2771.66 and 3099.57 and 2821.33 and 3581.57 and 4169.2
same,AUMCINF_pred,"IM, individual mice",3190.21 and 1900.74 and 3590.96 and 2771.26 and 3098.18 and 2820.84 and 3581.6 and 4133.86
same,AUMC_%Extrap_obs,"IM, individual mice",19.0405% and 2.9249% and 7.9241% and 12.3927% and 10.57% and 8.8194% and 7.6827% and 51.3426%
same,AUMC_%Extrap_pred,"IM, individual mice",18.949% and 2.9266% and 7.9228% and 12.3802% and 10.53% and 8.8035% and 7.6834% and 50.9267%
same,AUMClast,"IM, individual mice",2585.7 and 1845.12 and 3306.46 and 2428.17 and 2771.94 and 2572.51 and 3306.41 and 2028.62
same,Cl_F_obs,"IM, individual mice",9192.03 and 0.0124 and 0.0073 and 0.0092 and 0.0093 and 0.0083 and 0.0069
same,Cl_F_pred,"IM, individual mice",0.0124 and 0.0073 and 0.0092 and 0.0093 and 0.0083 and 0.0069
same,Clast,"IM, individual mice",9.25 and 1.85 and 6.51 and 5.87 and 6.37 and 4.83 and 6.04 and 9.7
same,Cmax,"IM, individual mice",520 and 469 and 730 and 550 and 410 and 609 and 667 and 531
same,HL_Lambda_z,"IM, individual mice",2.8327 and 1.4744 and 2.0296 and 2.5798 and 2.3224 and 2.3255 and 2.1008 and 6.9461
same,Tlag,"IM, individual mice",0
same,Tlast,"IM, individual mice",12
same,Lambda_z,"IM, individual mice, non-compartmental analysis",0.2447 and 0.4701 and 0.3415 and 0.2687 and 0.2985 and 0.2981 and 0.3299 and 0.0998
same,MRTINF_obs,"IM, individual mice, in h",2.9358 and 2.3604 and 2.6153 and 2.5365 and 2.8788 and 2.3416 and 2.4688 and 4.0751
same,MRTINF_pred,"IM, individual mice, in h",2.9331 and 2.3604 and 2.6153 and 2.5362 and 2.8778 and 2.3413 and 2.4688 and 4.0469
same,MRTlast,"IM, individual mice, in h",2.4623 and 2.3026 and 2.442 and 2.2675 and 2.6266 and 2.1642 and 2.3082 and 2.191
same,Tmax,"IM, individual mice, in h",0.25 and 0.33 and 0.5 and 0.17 and 0.75
same,"plasma concentration, AV","IV, 0.083h",4.976 ng/mL
